The values below come from ChEMBL document CHEMBL1146736, “Simple aromatic compounds containing propenone moiety show considerable dual COX/5-LOX inhibitory activities” (Bioorg Med Chem Lett, 2004).

Each structure is given as a SMILES string.

In test [1] the target is T1, Prostaglandin G/H synthase 1 (Mus musculus, UniProt P22437).
T1 sequence (P22437 whole entry): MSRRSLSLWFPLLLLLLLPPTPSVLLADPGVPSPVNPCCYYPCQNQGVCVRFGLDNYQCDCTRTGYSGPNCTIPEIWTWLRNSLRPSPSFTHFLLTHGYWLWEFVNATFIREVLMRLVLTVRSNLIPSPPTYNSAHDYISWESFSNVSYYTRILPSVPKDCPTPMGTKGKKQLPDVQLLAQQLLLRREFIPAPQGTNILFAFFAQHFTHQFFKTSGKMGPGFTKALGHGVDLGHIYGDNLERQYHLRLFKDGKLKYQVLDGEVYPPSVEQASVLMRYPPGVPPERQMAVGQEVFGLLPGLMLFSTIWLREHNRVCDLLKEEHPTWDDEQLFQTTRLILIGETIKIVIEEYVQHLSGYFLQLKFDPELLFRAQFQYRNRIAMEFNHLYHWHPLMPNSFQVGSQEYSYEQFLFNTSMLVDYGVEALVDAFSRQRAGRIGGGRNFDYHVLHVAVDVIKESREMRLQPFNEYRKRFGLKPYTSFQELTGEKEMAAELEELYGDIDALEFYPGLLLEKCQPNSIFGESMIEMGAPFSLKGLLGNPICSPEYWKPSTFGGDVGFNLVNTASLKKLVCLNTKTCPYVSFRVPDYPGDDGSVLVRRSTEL
As to the kind of experiment: Inhibitory activity against murine prostaglandin G/H synthase 1.

For test [2], the target named is T2, Prostaglandin G/H synthase 2 (Mus musculus, UniProt Q05769).
T2 sequence (Q05769 whole entry): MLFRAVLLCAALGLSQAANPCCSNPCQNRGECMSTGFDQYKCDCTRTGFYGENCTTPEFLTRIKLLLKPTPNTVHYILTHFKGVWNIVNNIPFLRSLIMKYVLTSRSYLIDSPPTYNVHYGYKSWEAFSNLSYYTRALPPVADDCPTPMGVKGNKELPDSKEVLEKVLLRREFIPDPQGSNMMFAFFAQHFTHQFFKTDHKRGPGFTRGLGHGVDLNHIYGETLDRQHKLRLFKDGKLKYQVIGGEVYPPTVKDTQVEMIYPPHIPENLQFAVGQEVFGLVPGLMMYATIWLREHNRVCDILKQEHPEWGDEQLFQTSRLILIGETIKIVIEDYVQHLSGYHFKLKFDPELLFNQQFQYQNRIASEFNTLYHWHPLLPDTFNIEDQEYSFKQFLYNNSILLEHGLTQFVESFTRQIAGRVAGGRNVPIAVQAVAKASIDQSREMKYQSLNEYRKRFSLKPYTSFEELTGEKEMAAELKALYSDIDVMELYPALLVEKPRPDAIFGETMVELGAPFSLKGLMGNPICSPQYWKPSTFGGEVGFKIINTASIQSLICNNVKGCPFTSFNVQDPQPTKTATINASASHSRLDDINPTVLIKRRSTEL
Nature of the test: Inhibitory activity against murine Prostaglandin G/H synthase 2.

For test [3], the target named is T3, Polyunsaturated fatty acid 5-lipoxygenase (Mus musculus, UniProt P48999).
T3 sequence (P48999 whole entry): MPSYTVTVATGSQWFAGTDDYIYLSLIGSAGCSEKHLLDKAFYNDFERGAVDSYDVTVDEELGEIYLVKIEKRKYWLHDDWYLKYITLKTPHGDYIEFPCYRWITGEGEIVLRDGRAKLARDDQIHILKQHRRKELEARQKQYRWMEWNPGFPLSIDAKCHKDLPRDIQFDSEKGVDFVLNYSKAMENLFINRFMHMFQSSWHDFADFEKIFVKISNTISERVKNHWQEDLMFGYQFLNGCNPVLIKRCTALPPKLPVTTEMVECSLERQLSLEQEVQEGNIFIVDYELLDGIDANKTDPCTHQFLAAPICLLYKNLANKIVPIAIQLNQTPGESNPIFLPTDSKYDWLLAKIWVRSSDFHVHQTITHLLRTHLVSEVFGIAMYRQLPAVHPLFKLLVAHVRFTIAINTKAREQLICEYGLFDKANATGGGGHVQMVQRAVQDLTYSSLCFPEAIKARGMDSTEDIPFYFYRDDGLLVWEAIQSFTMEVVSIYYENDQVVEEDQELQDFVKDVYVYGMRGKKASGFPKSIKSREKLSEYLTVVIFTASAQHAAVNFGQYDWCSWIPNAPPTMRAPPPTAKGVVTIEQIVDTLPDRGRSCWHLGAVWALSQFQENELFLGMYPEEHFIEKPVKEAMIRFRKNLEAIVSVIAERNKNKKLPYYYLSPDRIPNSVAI
As to the kind of experiment: Inhibitory activity against murine […].

Test [4] addresses T3, Polyunsaturated fatty acid 5-lipoxygenase. Nature of the test: Inhibitory activity against […] in mice.
The target of test [5] is T2, Prostaglandin G/H synthase 2. As to the kind of experiment: Inhibitory activity against cyclooxygenase-2 in micc.
The target in test [6] is T1, Prostaglandin G/H synthase 1. As to the kind of experiment: Inhibitory activity against Prostaglandin G/H synthase 1 in mice.

Regarding `O=C(/C=C/c1cccs1)c1ccccc1`, the half-maximal inhibitory concentration (IC50) in test [1] stood at 46.2 µM; in test [2], 9.02 µM; in test [3], 9.5 µM.

With `O=C(/C=C/c1ccsc1)c1cccnc1`, the IC50 in test [4] was determined as 10 µM; in test [1], 13 µM; in test [2], 18.4 µM.

For the molecule `O=C(/C=C/c1ccsc1)c1ccccn1`, the half-maximal inhibitory concentration (IC50) was 13 µM in test [1], 5.22 µM in test [2] and 7.6 µM in test [3].

On to `O=C(/C=C/c1ccoc1)c1ccccn1`, for which the values for the 50% inhibitory concentration (IC50) in test [1], in test [3] and in test [5] were 23.6 µM, 13.8 µM and 12 µM, respectively.

For `O=C(/C=C/c1ccco1)c1cccnc1`, the IC50 was 12 µM in test [2], 12 µM in test [3] and 59.7 µM in test [6].

Take `O=C(/C=C/c1ccco1)c1ccccn1`: the figures for the IC50 in test [1], in test [2] and in test [3] were 23.6 µM, 7.44 µM and 13.5 µM, respectively.

On to `O=C(/C=C/c1ccsc1)c1cccs1`, for which the concentration for half-maximal inhibition (IC50) in test [1] was 59.9 µM; in test [2] it was 26.7 µM; in test [3], 5.9 µM.

Consider `O=C(/C=C/c1ccoc1)c1cccnc1`, for which the results for the IC50 in test [1], in test [2] and in test [3] were 21 µM, 7.92 µM and 13.4 µM, respectively.

Take `O=C(/C=C/c1ccco1)c1ccco1`: the IC50 in test [1] was 80.7 µM; in test [2] it was 29 µM; in test [3], 12.8 µM.

`CC1=C(C)C(=O)C(CCCCC#CCCCC#CCO)=C(C)C1=O` [DOCEBENONE] displayed an IC50 in test [3] of 0.032 µM.

For `O=C(/C=C/c1ccccn1)c1ccco1`, the values for the IC50 in test [1], in test [2] and in test [3] were 65.3 µM, 1.89 µM and 0.37 µM, respectively.

`O=C(/C=C/c1ccco1)c1cccs1`: the IC50 in test [1] was 60.7 µM; in test [2], 13.7 µM; in test [3], 14 µM.

Take `O=C(/C=C/c1ccco1)c1ccc(Cl)s1`: the IC50 was 57.4 µM in test [1], 14.1 µM in test [2] and 7.52 µM in test [3].

`O=C(/C=C/c1ccccc1)c1ccccc1` [CHALCONE]: the figures for the IC50 in test [1], in test [2] and in test [3] were 22.1 µM, 11.2 µM and 12.2 µM, respectively.

Turning to `Cc1ccsc1/C=C/C(=O)c1ccccn1`, the results for the IC50 in test [1], in test [2] and in test [3] were 40.1 µM, 23.4 µM and 6.51 µM, respectively.

On to `O=C(/C=C/c1cccs1)c1cccs1`, for which the IC50 came out at 9.01 µM in test [1], 3.4 µM in test [2] and 4.8 µM in test [3].

On to `O=C(/C=C/c1ccccc1)c1ccccn1`, for which the 50% inhibitory concentration (IC50) in test [1] worked out at 32.5 µM; in test [2], 28.7 µM; in test [3] it was 8.13 µM.

On to `CS(=O)(=O)Nc1ccc([N+](=O)[O-])cc1OC1CCCCC1` [NS-398], for which, in test [1], the midpoint of inhibition, the IC50, lay at 1.67 µM.
